According to patent publication US20080102127A1, “HYBRID LIPID-POLYMER NANOPARTICULATE DELIVERY COMPOSITION” (priority 2006, published 2008):

System: Escherichia Coli (strain O157)
Assay: Sepsis model induced in mice by Escherichia Coli (strain O157)
Assay type: in vivo
Conditions: BALB/c mice, E. coli O157 2.5×10^8 cells i.p.; single intravenous injection 25 mg/kg (antibiotic base) 4 h post infection; n=10
Procedure: Antibacterial efficacy of antibiotics in hybrid polymer-lipid nanoparticles was evaluated “in vivo” in a sepsis model, induced in mice (BALB/C line) by Escherichia Coli (strain O157). E. Coli O157 strain was chosen as a model infection as one of the most common pathogens that cause nosocomial infections.
Female BALB/c mice 6-8 weeks old were infected intraperitoneally with E. coli (strain O157) at a dose of 2.5×10^8 cells off E. coli per mouse.
The infected animals were randomized in groups (n=10) and received one of the following formulations: […]
Streptomycin formulations: 1) Saline; 2) Streptomycin solution in saline, 5 mg/ml 3) Streptomycin in hybrid polymer-lipid nanoparticles (Example 30 in Table 1), 5 mg/ml.
Gentamycin formulations: 1) Saline 2) Gentamycin solution in saline, 2.5 mg/ml; 3) Gentamycin in hybrid polymer-lipid nanoparticles (Example 24 in Table 1), 2.5 mg/ml.
The formulations were injected intraperitoneally (Streptomycin) or intravenously (Gentamycin) in the doses of 1×25 mg/kg (calculated by antibiotic base) 4 h post infection.

In the case of “Gentamycin [Gentamycin solution in saline]”, the “survival of the animals at Day 10” value is reported as 20%.
